From ChEMBL document CHEMBL5715936, “Selective Itk inhibitors block T-cell activation and murine lung inflammation” (Biochemistry, 2004)

What was measured:
[1] = biological target: Protein kinase C (PKC); assay: Inhibition of PKC (unknown origin) using GST-SLP-76 as peptide substrate incubated for 10 mins in presence of [gamma-33P]ATP by scintillation counter assay; assay type: protein assay, Homo sapiens
[2] = biological target: T1, Cytoplasmic tyrosine-protein kinase BMX (Homo sapiens, UniProt P51813); assay: Inhibition of Bmx (unknown origin) using GST-SLP-76 as peptide substrate incubated for 10 mins in presence of [gamma-33P]ATP by scintillation counter assay
T1 sequence (P51813 whole entry): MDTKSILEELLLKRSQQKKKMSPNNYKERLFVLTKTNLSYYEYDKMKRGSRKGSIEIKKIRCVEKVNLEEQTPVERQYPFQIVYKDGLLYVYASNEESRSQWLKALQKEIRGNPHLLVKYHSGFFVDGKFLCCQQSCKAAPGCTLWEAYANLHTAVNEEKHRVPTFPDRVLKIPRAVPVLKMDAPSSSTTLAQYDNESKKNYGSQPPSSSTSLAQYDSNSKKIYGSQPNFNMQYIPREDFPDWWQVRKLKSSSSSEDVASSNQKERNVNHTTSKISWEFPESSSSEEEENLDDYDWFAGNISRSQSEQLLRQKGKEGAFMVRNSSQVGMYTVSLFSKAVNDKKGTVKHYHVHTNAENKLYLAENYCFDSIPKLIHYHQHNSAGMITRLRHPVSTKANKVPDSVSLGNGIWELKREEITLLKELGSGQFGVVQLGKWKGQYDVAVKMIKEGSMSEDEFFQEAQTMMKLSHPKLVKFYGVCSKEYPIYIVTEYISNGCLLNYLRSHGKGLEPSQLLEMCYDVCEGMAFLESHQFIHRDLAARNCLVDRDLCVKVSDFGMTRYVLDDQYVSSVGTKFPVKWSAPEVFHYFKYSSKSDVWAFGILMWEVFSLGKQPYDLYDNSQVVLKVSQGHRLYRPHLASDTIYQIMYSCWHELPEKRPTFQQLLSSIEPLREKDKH

[3] = biological target: Mitogen-activated protein kinase 3 (Homo sapiens, UniProt P27361); assay: Inhibition of ERK-1 (unknown origin) using GST-SLP-76 as peptide substrate incubated for 10 mins in presence of [gamma-33P]ATP by scintillation counter assay
[4] = biological target: Cyclin-dependent kinase 2 (Homo sapiens, UniProt P24941); assay: Inhibition of Cdk2 (unknown origin) using GST-SLP-76 as peptide substrate incubated for 10 mins in presence of [gamma-33P]ATP by scintillation counter assay
[5] = biological target: Tyrosine-protein kinase Lck (Homo sapiens, UniProt P06239); assay: Inhibition of Lck (unknown origin) using GST-SLP-76 as peptide substrate incubated for 10 mins in presence of [gamma-33P]ATP by scintillation counter assay
[6] = biological target: Tyrosine-protein kinase BTK (Homo sapiens, UniProt Q06187); assay: Inhibition of Btk (unknown origin) using GST-SLP-76 as peptide substrate incubated for 10 mins in presence of [gamma-33P]ATP by scintillation counter assay
[7] = biological target: cAMP-dependent protein kinase (PKA) (Homo sapiens, UniProt P22694+P17612+P22612); assay: Inhibition of PKA (unknown origin) using GST-SLP-76 as peptide substrate incubated for 10 mins in presence of [gamma-33P]ATP by scintillation counter assay; assay type: protein assay
[8] = biological target: Tyrosine-protein kinase SYK (Homo sapiens, UniProt P43405); assay: Inhibition of Syk (unknown origin) using GST-SLP-76 as peptide substrate incubated for 10 mins in presence of [gamma-33P]ATP by scintillation counter assay
[9] = biological target: T2, Tyrosine-protein kinase ZAP-70 (Homo sapiens, UniProt P43403); assay: Inhibition of ZAP-70 (unknown origin) using GST-SLP-76 as peptide substrate incubated for 10 mins in presence of [gamma-33P]ATP by scintillation counter assay
T2 sequence (P43403 whole entry): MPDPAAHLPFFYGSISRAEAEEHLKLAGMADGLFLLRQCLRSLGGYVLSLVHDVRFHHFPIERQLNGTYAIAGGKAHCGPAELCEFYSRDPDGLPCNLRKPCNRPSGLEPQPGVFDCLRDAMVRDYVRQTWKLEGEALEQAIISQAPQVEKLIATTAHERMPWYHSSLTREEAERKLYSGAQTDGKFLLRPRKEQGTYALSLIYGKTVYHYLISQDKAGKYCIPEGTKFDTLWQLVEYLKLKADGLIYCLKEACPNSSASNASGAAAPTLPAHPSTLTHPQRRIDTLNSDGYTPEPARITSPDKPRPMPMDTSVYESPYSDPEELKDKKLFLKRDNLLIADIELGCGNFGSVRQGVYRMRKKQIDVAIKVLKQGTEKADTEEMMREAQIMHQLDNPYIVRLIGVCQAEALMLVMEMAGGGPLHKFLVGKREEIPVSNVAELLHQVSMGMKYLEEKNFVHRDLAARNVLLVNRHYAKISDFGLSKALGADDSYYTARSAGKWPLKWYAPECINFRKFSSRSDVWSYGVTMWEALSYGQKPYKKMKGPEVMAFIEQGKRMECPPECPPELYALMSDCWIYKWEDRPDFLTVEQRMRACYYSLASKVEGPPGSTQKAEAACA

[10] = biological target: T3, Tyrosine-protein kinase TXK (Homo sapiens, UniProt P42681); assay: Inhibition of Txk (unknown origin) using GST-SLP-76 as peptide substrate incubated for 10 mins in presence of [gamma-33P]ATP by scintillation counter assay
T3 sequence (P42681 whole entry): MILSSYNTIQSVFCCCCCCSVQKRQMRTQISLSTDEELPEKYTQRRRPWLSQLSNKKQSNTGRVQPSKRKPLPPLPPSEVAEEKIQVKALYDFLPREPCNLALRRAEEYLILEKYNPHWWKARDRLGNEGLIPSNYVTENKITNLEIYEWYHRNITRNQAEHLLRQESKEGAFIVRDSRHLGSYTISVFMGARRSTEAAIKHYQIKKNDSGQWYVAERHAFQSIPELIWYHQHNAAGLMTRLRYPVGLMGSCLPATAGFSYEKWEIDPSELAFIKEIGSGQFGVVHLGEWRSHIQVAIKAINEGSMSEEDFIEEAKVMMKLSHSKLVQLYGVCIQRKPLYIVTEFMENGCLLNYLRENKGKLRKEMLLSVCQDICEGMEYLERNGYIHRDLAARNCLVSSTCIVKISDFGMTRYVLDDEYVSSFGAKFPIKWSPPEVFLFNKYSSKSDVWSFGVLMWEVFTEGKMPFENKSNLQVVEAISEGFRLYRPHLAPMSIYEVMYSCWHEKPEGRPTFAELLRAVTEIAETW

[11] = biological target: T4, Tyrosine-protein kinase Tec (Homo sapiens, UniProt P42680); assay: Inhibition of Tec (unknown origin) using GST-SLP-76 as peptide substrate incubated for 10 mins in presence of [gamma-33P]ATP by scintillation counter assay
T4 sequence (P42680 whole entry): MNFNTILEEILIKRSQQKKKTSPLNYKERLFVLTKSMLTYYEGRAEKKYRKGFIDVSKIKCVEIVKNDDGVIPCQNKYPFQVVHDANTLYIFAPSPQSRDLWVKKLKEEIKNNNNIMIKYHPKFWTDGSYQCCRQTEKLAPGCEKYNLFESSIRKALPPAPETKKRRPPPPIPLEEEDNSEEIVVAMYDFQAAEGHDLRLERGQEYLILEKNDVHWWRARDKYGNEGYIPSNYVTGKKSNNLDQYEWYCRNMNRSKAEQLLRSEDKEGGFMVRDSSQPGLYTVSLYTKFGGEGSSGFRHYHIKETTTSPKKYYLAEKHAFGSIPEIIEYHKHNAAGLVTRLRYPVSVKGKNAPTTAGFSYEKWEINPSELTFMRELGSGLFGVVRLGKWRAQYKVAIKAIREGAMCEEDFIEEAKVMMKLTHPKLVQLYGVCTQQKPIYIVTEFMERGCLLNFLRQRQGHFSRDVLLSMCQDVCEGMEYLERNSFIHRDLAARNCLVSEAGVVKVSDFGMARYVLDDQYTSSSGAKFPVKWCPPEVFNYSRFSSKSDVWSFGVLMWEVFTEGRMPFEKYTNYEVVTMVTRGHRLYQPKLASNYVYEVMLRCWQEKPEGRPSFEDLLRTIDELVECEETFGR

[12] = biological target: Epidermal growth factor receptor (Homo sapiens, UniProt P00533); assay: Inhibition of EGFR (unknown origin) using GST-SLP-76 as peptide substrate incubated for 10 mins in presence of [gamma-33P]ATP by scintillation counter assay
Sequence of Epidermal growth factor receptor (P00533 whole entry): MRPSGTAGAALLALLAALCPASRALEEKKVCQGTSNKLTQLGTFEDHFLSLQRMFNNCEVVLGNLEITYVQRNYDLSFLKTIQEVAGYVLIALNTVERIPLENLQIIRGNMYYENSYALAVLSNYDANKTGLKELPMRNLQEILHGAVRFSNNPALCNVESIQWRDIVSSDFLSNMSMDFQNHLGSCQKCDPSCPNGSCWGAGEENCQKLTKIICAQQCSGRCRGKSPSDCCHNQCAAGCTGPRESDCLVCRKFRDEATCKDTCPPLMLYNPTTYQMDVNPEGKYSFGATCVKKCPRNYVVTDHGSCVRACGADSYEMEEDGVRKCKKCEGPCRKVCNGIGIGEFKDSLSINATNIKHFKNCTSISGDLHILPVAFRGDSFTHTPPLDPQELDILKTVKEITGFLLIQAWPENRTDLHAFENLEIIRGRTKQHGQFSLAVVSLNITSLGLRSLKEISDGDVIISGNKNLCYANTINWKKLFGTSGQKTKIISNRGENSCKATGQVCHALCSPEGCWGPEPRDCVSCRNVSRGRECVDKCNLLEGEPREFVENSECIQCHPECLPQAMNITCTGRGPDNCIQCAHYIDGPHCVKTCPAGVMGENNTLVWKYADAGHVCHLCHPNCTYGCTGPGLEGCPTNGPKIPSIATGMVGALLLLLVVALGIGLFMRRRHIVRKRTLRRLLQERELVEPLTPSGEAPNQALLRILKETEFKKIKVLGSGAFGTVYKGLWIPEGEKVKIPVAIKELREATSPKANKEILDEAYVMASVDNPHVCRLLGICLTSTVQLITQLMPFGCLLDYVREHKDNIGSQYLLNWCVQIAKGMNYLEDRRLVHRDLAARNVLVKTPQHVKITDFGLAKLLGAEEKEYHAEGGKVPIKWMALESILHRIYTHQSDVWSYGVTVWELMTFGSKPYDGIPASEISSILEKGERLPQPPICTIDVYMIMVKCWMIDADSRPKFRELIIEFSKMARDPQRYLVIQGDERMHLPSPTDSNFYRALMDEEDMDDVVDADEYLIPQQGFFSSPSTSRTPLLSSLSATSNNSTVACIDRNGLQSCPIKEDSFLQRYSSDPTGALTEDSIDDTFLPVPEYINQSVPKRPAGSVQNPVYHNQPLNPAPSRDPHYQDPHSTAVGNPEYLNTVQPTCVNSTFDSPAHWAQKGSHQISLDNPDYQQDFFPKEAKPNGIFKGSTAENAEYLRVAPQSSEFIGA

Sequence of Tyrosine-protein kinase Lck (P06239 whole entry): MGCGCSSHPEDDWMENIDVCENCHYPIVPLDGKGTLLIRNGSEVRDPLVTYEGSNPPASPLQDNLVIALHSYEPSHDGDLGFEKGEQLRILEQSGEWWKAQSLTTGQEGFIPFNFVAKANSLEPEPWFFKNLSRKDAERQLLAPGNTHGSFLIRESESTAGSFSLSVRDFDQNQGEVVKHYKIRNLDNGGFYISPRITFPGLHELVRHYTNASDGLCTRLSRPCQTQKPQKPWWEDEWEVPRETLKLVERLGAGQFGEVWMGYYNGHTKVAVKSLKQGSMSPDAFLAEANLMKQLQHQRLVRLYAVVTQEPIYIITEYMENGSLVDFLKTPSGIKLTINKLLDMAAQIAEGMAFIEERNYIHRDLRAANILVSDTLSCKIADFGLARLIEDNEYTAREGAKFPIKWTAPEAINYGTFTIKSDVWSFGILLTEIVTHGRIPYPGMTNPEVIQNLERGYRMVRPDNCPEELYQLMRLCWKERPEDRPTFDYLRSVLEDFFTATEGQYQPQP
Sequence of Tyrosine-protein kinase BTK (Q06187 whole entry): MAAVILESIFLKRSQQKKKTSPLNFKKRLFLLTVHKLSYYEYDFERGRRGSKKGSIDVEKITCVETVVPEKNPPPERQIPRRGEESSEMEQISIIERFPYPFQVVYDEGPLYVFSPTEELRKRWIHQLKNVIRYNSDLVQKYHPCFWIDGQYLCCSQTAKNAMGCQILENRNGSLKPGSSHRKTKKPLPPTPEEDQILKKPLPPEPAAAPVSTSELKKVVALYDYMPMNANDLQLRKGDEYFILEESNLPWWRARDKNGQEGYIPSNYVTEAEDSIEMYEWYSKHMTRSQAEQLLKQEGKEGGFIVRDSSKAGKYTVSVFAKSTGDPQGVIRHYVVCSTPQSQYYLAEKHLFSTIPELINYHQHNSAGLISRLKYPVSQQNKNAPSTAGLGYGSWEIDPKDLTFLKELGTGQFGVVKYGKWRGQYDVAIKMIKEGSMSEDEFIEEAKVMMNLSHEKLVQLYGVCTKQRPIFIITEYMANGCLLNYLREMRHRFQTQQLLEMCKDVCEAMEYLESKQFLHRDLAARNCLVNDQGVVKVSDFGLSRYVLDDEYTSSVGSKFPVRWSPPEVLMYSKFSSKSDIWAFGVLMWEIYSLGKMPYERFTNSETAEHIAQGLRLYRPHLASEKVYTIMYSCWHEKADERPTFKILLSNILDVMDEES
Sequence of Mitogen-activated protein kinase 3 (P27361 whole entry): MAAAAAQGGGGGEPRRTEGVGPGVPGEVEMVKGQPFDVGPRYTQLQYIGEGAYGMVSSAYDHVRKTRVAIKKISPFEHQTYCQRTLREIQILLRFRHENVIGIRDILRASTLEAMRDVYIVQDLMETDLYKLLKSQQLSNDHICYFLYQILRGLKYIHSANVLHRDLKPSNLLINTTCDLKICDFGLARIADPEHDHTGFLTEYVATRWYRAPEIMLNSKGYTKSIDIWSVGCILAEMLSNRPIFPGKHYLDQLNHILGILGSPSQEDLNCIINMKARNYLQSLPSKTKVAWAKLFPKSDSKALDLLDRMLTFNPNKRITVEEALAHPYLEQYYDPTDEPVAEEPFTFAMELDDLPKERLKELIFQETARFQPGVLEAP

IC50 [1]: > 50 µM
IC50 [2]: 20 µM
IC50 [3]: > 50 µM
IC50 [4]: 27 µM
IC50 [5]: > 25 µM
IC50 [6]: 49 µM
IC50 [7]: > 50 µM
IC50 [8]: > 50 µM
IC50 [9]: > 50 µM
IC50 [10]: > 50 µM
IC50 [11]: > 50 µM
IC50 [12]: > 50 µM
Compound: CC(=O)N1CCN(C(=O)c2cccc(CSc3cnc(NC(=O)c4ccc(N(C)C)cc4)s3)c2)CC1
